How the values were obtained:
Adenosine receptor A3 = target: T1, Adenosine receptor A3 (Homo sapiens, UniProt P0DMS8)
T1 sequence (P0DMS8 whole entry): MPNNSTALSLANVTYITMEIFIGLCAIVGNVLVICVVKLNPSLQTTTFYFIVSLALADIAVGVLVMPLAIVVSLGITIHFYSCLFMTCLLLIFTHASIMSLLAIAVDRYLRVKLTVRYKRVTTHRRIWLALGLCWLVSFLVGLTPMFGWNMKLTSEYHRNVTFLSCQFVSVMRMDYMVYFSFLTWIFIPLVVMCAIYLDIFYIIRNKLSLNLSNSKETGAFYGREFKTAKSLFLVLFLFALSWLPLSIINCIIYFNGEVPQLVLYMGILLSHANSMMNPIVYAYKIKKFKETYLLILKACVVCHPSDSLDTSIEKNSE

[1] = target: T2, Alpha-2A adrenergic receptor (Homo sapiens, UniProt P08913); type: functional, cell-based
T2 sequence (P08913 whole entry): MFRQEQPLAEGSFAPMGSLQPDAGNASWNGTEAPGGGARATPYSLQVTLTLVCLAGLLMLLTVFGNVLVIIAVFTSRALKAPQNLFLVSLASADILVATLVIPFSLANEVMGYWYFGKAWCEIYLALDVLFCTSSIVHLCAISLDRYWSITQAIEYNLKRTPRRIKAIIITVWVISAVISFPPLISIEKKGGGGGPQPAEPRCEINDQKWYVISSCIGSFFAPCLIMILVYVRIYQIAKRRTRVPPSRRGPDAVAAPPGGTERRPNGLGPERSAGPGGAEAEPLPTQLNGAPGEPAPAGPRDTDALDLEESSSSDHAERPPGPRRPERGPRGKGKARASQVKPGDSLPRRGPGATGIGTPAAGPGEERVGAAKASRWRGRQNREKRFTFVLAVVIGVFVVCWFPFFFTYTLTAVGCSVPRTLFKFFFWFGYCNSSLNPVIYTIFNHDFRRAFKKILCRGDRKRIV

[2] = target: T3, Type-1 angiotensin II receptor (Homo sapiens, UniProt P30556)
T3 sequence (P30556 whole entry): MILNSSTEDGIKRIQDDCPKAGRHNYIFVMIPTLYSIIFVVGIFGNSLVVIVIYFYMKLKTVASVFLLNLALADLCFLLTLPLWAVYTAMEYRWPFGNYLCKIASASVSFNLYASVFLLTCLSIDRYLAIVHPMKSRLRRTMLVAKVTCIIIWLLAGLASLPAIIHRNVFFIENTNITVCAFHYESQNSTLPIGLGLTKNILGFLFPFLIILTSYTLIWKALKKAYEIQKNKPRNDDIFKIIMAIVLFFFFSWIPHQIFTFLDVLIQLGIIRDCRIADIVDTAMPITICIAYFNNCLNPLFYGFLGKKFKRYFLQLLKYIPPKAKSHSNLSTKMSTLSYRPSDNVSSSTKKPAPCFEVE

[3] = target: T4, Amine oxidase [flavin-containing] A (Homo sapiens, UniProt P21397); type: functional
T4 sequence (P21397 whole entry): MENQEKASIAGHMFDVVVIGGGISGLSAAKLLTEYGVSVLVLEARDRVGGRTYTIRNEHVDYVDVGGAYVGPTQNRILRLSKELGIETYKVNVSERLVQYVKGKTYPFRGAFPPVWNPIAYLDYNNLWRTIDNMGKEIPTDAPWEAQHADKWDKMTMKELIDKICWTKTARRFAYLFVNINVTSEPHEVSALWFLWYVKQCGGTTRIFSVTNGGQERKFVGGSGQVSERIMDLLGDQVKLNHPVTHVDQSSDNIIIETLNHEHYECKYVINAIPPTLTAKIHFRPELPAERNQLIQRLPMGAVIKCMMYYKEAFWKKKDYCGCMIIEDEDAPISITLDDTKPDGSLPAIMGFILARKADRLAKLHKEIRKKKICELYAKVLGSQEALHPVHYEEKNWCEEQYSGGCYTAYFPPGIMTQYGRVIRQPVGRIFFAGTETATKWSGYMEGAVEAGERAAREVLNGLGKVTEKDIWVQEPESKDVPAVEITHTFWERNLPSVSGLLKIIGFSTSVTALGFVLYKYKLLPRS

Bile salt export pump = Bile salt export pump (Homo sapiens, UniProt O95342); type: functional
Adenosine receptor A1 = target: T5, Adenosine receptor A1 (Homo sapiens, UniProt P30542)
T5 sequence (P30542 whole entry): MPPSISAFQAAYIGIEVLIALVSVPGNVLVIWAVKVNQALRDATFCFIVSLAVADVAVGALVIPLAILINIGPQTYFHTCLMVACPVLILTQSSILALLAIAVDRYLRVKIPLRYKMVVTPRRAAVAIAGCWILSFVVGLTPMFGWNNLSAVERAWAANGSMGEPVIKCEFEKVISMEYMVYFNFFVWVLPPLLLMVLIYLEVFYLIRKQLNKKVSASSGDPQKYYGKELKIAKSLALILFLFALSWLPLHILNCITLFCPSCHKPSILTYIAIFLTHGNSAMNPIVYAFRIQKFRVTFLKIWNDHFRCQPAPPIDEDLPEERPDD

[4] = target: Sodium-dependent dopamine transporter (Homo sapiens, UniProt Q01959)
[5] = target: T6, Muscarinic acetylcholine receptor M2 (Homo sapiens, UniProt P08172); type: functional, cell-based
T6 sequence (P08172 whole entry): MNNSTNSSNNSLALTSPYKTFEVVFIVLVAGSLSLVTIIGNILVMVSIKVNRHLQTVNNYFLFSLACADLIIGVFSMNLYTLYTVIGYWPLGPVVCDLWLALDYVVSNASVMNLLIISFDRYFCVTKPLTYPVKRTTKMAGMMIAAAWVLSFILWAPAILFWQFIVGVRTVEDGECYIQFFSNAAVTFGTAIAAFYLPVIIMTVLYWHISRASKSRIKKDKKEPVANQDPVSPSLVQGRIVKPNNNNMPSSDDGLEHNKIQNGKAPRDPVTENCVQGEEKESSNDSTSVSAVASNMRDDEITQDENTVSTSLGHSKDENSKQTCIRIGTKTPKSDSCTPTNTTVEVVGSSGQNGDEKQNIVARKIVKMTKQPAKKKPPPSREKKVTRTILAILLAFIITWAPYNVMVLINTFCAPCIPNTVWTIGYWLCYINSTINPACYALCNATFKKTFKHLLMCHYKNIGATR
Also: assay procedure not described here.

Sequence of Bile salt export pump (O95342 whole entry): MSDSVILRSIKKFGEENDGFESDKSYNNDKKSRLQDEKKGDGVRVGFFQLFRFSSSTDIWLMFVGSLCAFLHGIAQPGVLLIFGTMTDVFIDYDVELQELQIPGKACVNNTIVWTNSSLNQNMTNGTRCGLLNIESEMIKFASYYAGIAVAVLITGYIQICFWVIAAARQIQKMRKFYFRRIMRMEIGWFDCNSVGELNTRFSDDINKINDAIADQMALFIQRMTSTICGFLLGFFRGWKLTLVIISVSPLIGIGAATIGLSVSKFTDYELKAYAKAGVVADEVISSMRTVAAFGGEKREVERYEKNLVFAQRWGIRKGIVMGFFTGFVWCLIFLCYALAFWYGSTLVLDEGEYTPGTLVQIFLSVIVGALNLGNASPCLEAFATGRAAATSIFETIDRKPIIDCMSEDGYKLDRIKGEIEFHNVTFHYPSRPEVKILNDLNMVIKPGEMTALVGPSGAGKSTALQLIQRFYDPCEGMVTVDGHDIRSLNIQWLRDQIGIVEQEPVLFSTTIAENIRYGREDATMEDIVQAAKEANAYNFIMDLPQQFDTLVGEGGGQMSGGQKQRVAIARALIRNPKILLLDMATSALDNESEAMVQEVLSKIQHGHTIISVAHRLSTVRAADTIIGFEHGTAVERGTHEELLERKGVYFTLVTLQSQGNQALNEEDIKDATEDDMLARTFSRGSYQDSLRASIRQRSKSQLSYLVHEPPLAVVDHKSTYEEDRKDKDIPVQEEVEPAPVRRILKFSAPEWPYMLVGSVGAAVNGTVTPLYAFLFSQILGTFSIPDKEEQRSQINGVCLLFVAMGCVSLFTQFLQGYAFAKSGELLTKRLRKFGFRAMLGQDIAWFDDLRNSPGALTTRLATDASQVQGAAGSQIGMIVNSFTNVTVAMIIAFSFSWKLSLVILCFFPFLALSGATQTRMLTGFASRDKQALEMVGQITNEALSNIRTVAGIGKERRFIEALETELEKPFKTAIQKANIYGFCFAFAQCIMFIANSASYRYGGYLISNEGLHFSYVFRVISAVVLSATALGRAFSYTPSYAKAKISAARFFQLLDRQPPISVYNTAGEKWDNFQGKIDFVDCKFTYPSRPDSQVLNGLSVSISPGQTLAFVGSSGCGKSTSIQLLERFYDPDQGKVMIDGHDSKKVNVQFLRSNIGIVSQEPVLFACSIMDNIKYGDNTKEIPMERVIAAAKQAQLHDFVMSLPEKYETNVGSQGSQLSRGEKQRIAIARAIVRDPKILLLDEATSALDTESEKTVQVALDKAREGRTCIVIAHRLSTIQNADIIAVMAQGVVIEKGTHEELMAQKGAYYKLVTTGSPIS
Sequence of Sodium-dependent dopamine transporter (Q01959 whole entry): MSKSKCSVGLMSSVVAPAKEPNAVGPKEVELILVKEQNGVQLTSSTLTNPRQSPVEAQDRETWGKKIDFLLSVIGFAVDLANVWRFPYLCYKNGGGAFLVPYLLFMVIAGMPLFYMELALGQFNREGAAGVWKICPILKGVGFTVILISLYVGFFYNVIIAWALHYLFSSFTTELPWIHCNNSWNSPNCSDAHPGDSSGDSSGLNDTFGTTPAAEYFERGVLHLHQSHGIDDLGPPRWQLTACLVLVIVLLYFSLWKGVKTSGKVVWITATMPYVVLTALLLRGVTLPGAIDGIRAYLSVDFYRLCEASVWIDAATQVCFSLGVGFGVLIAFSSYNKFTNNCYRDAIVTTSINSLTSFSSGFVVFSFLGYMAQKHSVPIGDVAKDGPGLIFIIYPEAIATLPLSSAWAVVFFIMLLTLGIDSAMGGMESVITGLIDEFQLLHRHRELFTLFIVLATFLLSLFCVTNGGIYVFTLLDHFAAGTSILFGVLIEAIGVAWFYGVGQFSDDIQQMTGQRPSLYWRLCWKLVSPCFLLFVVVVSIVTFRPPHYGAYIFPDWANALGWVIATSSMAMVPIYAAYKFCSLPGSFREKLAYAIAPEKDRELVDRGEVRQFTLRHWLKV

Row | SMILES | AC50 (Adenosine receptor A3) [µM] | AC50 [1] [µM] | AC50 [2] [µM] | AC50 [3] [µM] | AC50 (Bile salt export pump) [µM] | AC50 (Adenosine receptor A1) [µM] | AC50 [4] [µM] | AC50 [5] [µM]
1 | COc1cc2nc(N(C)CCCNC(=O)C3CCCO3)nc(N)c2cc1OC (stereo not given) [ALFUZOSIN] | > 30 | 6.8 | > 30 | > 30 | > 300 | > 30 | > 30 | > 30
2 | CNC(=O)c1ccccc1Sc1ccc2c(/C=C/c3ccccn3)n[nH]c2c1 [AXITINIB] | 4.52 | > 30 | > 30 | > 30 | 5.4 | > 30 | 0.07 | > 30
3 | CC[C@H]1OC(=O)[C@H](C)[C@@H](O[C@H]2C[C@@](C)(OC)[C@@H](O)[C@H](C)O2)[C@H](C)[C@@H](O[C@@H]2O[C@H](C)C[C@H](N(C)C)[C@H]2O)[C@](C)(O)C[C@@H](C)CN(C)[C@H](C)[C@@H](O)[C@]1(C)O [AZITHROMYCIN] | > 30 | > 10 | > 30 | > 10 | 200 | > 30 | > 10 | > 10
4 | NCC(CC(=O)O)c1ccc(Cl)cc1 (stereo not given) [BACLOFEN] | 4.2 | > 30 | > 30 | > 30 | > 300 | > 30 | > 30 | > 30
5 | Cc1ccc(-c2cc(C(F)(F)F)nn2-c2ccc(S(N)(=O)=O)cc2)cc1 [CELECOXIB] | 9.14 | > 10 | > 10 | > 10 | 34 | > 10 | 5.86 | > 10
6 | CN1C(=O)CCS(=O)(=O)C1c1ccc(Cl)cc1 (stereo not given) [CHLORMEZANONE] | > 10 | > 10 | > 10 | > 30 | > 300 | > 10 | > 10 | > 10
7 | CN(C)CCC(c1ccc(Cl)cc1)c1ccccn1 (stereo not given) [CHLORPHENIRAMINE] | > 30 | > 10 | > 30 | > 10 | > 300 | > 30 | 1.46 | > 10
8 | CN(C)/N=N/c1[nH]cnc1C(N)=O [DACARBAZINE] | > 10 | > 10 | > 10 | > 10 | > 300 | > 10 | > 10 | > 10
9 | O=C1Nc2ccc(Cl)cc2[C@@](C#CC2CC2)(C(F)(F)F)O1 [EFAVIRENZ] | 6 | > 10 | 13 | > 30 | 110 | > 30 | 18 | > 10
10 | O=C(OCC(O)CO)c1ccccc1Nc1ccnc2cc(Cl)ccc12 (stereo not given) [GLAFENINE] | 7.2 | > 30 | > 30 | > 30 | 15 | > 30 | > 30 | > 10
11 | C[C@]12CCC(=O)C=C1CC[C@@H]1[C@@H]2[C@@H](O)C[C@@]2(C)[C@H]1CC[C@]2(O)C(=O)CO [HYDROCORTISONE] | > 30 | > 10 | > 30 | > 10 | > 300 | > 30 | > 10 | > 10
12 | O=P1(NCCCl)OCCCN1CCCl (stereo not given) [IFOSFAMIDE] | > 30 | > 30 | > 30 | > 30 | > 300 | > 30 | > 30 | > 30
13 | CCC(C)n1ncn(-c2ccc(N3CCN(c4ccc(OCC5COC(Cn6cncn6)(c6ccc(Cl)cc6Cl)O5)cc4)CC3)cc2)c1=O (stereo not given) [ITRACONAZOLE] | > 30 | > 30 | > 30 | > 30 | 0.66 | > 30 | > 30 | > 30
14 | c1ccc([C@H]2CN3CCSC3=N2)cc1 [LEVAMISOLE] | > 30 | > 30 | > 30 | > 30 | > 300 | > 30 | > 30 | > 30
15 | C[C@H]1CNCCc2ccc(Cl)cc21 [LORCASERIN] | > 30 | 7.2 | > 30 | > 30 | > 300 | > 30 | > 30 | > 30
16 | CN1C(C(=O)Nc2ccccn2)=C(O)c2sc(Cl)cc2S1(=O)=O [LORNOXICAM] | > 30 | > 10 | > 30 | > 10 | 32 | > 30 | > 30 | > 10
17 | Cc1cccc(Nc2ccccc2C(=O)O)c1C [MEFENAMIC ACID] | > 10 | > 10 | > 10 | > 10 | 150 | > 10 | > 10 | > 10
18 | C[C@@H](O)[C@H]1C(=O)N2C(C(=O)O)=C(S[C@@H]3CN[C@H](C(=O)N(C)C)C3)[C@H](C)[C@H]12 [MEROPENEM] | > 300 | > 300 | > 300 | > 300 | > 300 | > 300 | > 300 | > 300
19 | CNC1Cc2ccccc2N(C)c2ccccc21 (stereo not given) [METAPRAMINE] | > 30 | 3.2 | > 30 | > 30 | > 300 | > 30 | > 30 | > 30
20 | Clc1ccc(C(c2ccccc2Cl)C(Cl)Cl)cc1 (stereo not given) [MITOTANE] | > 10 | > 10 | > 10 | > 10 | 41 | > 10 | > 10 | > 10
